Consider ten compounds from ChEMBL document CHEMBL5506044, “Ligandability Assessment of IL-1β by Integrated Hit Identification Approaches” (J Med Chem, 2024).

Bridge positions count the residues as written; N and C are the ends. Peptide text beside a SMILES is read from it.

Assay [1] concerns the target T1, Interleukin-1 beta (Homo sapiens, UniProt P01584).
The target in a further assay is T2, Interleukin-1 alpha (Homo sapiens, UniProt P01583).
T2 sequence (P01583 whole entry): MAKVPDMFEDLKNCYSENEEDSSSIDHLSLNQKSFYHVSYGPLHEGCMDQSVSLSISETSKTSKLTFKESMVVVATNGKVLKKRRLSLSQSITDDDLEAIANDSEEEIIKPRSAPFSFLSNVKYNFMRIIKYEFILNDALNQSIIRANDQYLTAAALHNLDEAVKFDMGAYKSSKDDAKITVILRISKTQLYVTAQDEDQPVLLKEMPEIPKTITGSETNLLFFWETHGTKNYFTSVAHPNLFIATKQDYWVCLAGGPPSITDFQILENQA

The target of assay [2] is T1, Interleukin-1 beta. The source holds these as a separate data set.
Description: Antagonist activity at human recombinant His-tagged wild type IL-1 beta assessed as inhibition of IL-1 beta/Alexa 647 labeled human IL-1R1 (1 to 332) interaction preincubated with IL-1 beta for 1 hr followed by IL-1R1 addition and measured after 1 hr by TR-FRET assay
Assay [3] deals with T1, Interleukin-1 beta. The source holds these as a separate data set.
Description: Antagonist activity at human IL-1 beta assessed as inhibition of interaction of IL-1 beta/IL-1R1 expressed in NHDF cells by measuring reduction in IL-6 production preincubated with IL-1 beta for 1 hr followed by incubation with cells and measured after 6 hrs by ELISA
Assay [4] has as its target T1, Interleukin-1 beta. The source holds these as a separate data set.
Description: Antagonist activity at human IL-1 beta assessed as inhibition of interaction of IL-1beta/IL-1R1 expressed in HEK293-Blue cells by measuring reduction in SEAP activity preincubated with IL-1 beta for 1 hr followed by incubation with cells and measured after overnight by reporter gene assay

T1 sequence (P01584 117-269 limits assumed): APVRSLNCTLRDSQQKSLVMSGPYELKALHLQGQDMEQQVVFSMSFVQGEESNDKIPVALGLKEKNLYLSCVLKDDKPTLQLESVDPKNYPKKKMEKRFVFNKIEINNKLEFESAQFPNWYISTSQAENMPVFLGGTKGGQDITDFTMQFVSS
Description for Interleukin-1 alpha: Antagonist activity at human recombinant His-tagged wild type IL-1 alpha assessed as inhibition of IL-1 alpha/Alexa 647 labeled human IL-1R1 (1 to 332) interaction preincubated with IL-1 alpha for 1 hr followed by IL-1R1 addition and measured after 1 hr by TR-FRET assay

As usually defined, the Ki is a measure of affinity in units of concentration, obtained from inhibition or displacement. Lower therefore signals a stronger hold on the target. `Cc1cc(O)c(C(c2cc(C3CC(C(=O)O)C3)ccc2O)c2c[nH]nc2C(=O)O)cc1C` (racemic) had a Ki at Interleukin-1 beta [1] of 43 µM. A word on the IC50: it is the concentration that gives 50% inhibition. The low end stands for greater potency in that assay, the high end for weaker potency in that assay. Take `O=Cc1ccc(-c2cc(C(=O)O)cn3cc(C(=O)N4CCN(S(=O)(=O)c5ccccc5)CC[C@H]4C(=O)NCCN4CCOCC4)nc23)cc1C(F)(F)F`: the values for the IC50 against Interleukin-1 alpha and on Interleukin-1 beta [2] were over 200 µM and 1.2 µM, respectively. For `NCCCC[C@H](NC(=O)CNC(=O)[C@@H]1CSCC(=O)N[C@@H](Cc2ccccc2)C(=O)N[C@@H](Cc2c[nH]c3ccccc23)C(=O)N[C@@H](CC(=O)O)C(=O)N[C@@H](CO)C(=O)N[C@@H](Cc2c[nH]c3ccccc23)C(=O)NCC(=O)N[C@@H](Cc2ccc(O)cc2)C(=O)N[C@@H](Cc2c[nH]c3ccccc23)C(=O)N[C@@H](Cc2ccc(O)cc2)C(=O)NCC(=O)N2CCC[C@H]2C(=O)N[C@@H](Cc2c[nH]c3ccccc23)C(=O)N[C@@H](CC(=O)O)C(=O)N1)C(N)=O` ({CH2CO}-FWDSWGYWYGPWDCGK-NH2; thioether N-14) the same measures were over 200 µM and 14 µM. At Interleukin-1 beta [1], `OC(c1ccc(OC(F)F)cc1)(c1cccc(Br)c1)c1cc[nH]n1` (racemic) returned a Ki of over 1000 µM. Consider `CC(C)c1cc(-c2cc(C(=O)O)cn3cc(C(=O)N4CCN(S(=O)(=O)c5ccccc5)CC[C@H]4C(=O)NCCN4CCOCC4)nc23)ccc1C=O`, for which the IC50 against Interleukin-1 alpha came to 99 µM; against Interleukin-1 beta [2], 8.3 µM. As to `CC(C)c1cccc(-c2cc(C(=O)O)cn3cc(C(=O)N4CCN(S(=O)(=O)c5ccccc5)CCC4C(=O)NCCN4CCOCC4)nc23)c1` (configuration not stated), the IC50 against Interleukin-1 beta [2] was over 200 µM. On to `CC(C)c1cc(-c2cc(C(=O)O)cn3cc(C(=O)N4CCCN(S(=O)(=O)c5ccccc5)CC4)nc23)ccc1C=O`, for which the IC50 on Interleukin-1 alpha and against Interleukin-1 beta [2] was over 200 µM throughout. `CC(C)c1cc(-c2cc(C(=O)O)cn3cc(C(=O)N4CCN(S(=O)(=O)c5ccccc5)CC[C@@H]4C(=O)NCCN4CCOCC4)nc23)ccc1C=O`: the IC50 against Interleukin-1 alpha was over 200 µM; at Interleukin-1 beta [2] it was 78.4 µM. As for `CC(C)c1cc(-c2cc(C(=O)O)cn3cc(C(=O)N4CCN(S(=O)(=O)c5ccccc5)CCC4C(=O)NCCN4CCOCC4)nc23)ccc1C=O` (racemic), the midpoint of inhibition at Interleukin-1 beta [2], the IC50, lay at 11 µM. This counts as double-digit micromolar. Turning to `Cc1ccc2c(c1)NC(=O)[C@@]2(c1cn[nH]c1)c1cc(-c2ccc(C(=O)O)cc2C(=O)O)ccc1O`, the IC50 on Interleukin-1 beta [3] stood at 7.9 µM; on Interleukin-1 beta [4], 5.3 µM. Besides, the Ki on Interleukin-1 beta [1] is under 10 µM.
